Consider five compounds from PubChem BioAssay AID1259407 (Chemical Carcinogenesis Research Information System (CCRIS), 2018).

For the series, the system named is CCRIS mutagenicity, Ames/micronucleus/aberration tests. Briefly: CCRIS mutagenicity studies.
The mark [1] stands for this setting: Test System: AMES SALMONELLA TYPHIMURIUM, Strain/Indicator: TA98, Metabolic Activation: NONE, Method: STANDARD PLATE.
Where [2] appears, read: Test System: AMES SALMONELLA TYPHIMURIUM, Strain/Indicator: TA98, Metabolic Activation: RAT, LIVER, S-9, AROCLOR 1254, Method: STANDARD PLATE.
Where [3] appears, read: Test System: AMES SALMONELLA TYPHIMURIUM, Strain/Indicator: TA100, Metabolic Activation: NONE, Method: STANDARD PLATE.
Where [4] appears, read: Test System: AMES SALMONELLA TYPHIMURIUM, Strain/Indicator: TA100, Metabolic Activation: RAT, LIVER, S-9, AROCLOR 1254, Method: STANDARD PLATE.
[5] abbreviates: Test System: MOUSE LYMPHOMA, Strain/Indicator: L5178Y (TK+/TK-), Metabolic Activation: NONE, Method: SUSPENSION/PLATE.
Setting [6] is: Test System: AMES SALMONELLA TYPHIMURIUM, Strain/Indicator: TA1535, Metabolic Activation: NONE, Method: STANDARD PLATE.

The source made the active and inactive calls. How the calls were made is not given here.

As for `Cl/C=C/Cl`, the mutagenic call (End Point: IN VITRO CHROMOSOMAL ABERRATIONS, Test System: CHINESE HAMSTER LUNG (CHL), Metabolic Activation: NONE) was “inactive; negative”; the mutagenic call (End Point: IN VITRO CHROMOSOMAL ABERRATIONS, Test System: CHINESE HAMSTER LUNG (CHL), Metabolic Activation: RAT, LIVER, S-9, KC-400) was “inactive; negative”; the mutagenic call (Test System: AMES SALMONELLA TYPHIMURIUM, Strain/Indicator: TA97, Metabolic Activation: NONE, Method: STANDARD PLATE) was “inactive; negative”; the mutagenic call (Test System: AMES SALMONELLA TYPHIMURIUM, Strain/Indicator: TA97, Metabolic Activation: RAT, LIVER, S-9, AROCLOR 1254, Method: STANDARD PLATE) is “active; positive”; the mutagenic call (Test System: AMES SALMONELLA TYPHIMURIUM, Strain/Indicator: TA98, Metabolic Activation: HAMSTER LIVER S-9, AROCLOR 1254 (10%), Method: PREINCUBATION) is “inactive; negative”; the mutagenic call (Test System: AMES SALMONELLA TYPHIMURIUM, Strain/Indicator: TA98, Metabolic Activation: HAMSTER, LIVER, S-9, AROCLOR 1254 (10%), Method: PREINCUBATION) was “inactive; negative”. Moreover, the mutagenic call reads like this: (Test System: AMES SALMONELLA TYPHIMURIUM, Strain/Indicator: TA98, Metabolic Activation: NONE, Method: PREINCUBATION) “inactive; negative”; under setting [1], “inactive; negative”; (Test System: AMES SALMONELLA TYPHIMURIUM, Strain/Indicator: TA98, Metabolic Activation: RAT LIVER S-9, AROCLOR 1254 (10%), Method: PREINCUBATION) “inactive; negative”; (Test System: AMES SALMONELLA TYPHIMURIUM, Strain/Indicator: TA98, Metabolic Activation: RAT, LIVER, S-9, AROCLOR 1254 (10%), Method: PREINCUBATION) “inactive; negative”; under setting [2], “active; positive”; (Test System: AMES SALMONELLA TYPHIMURIUM, Strain/Indicator: TA100, Metabolic Activation: HAMSTER LIVER S-9, AROCLOR 1254 (10%), Method: PREINCUBATION) “inactive; negative”. Moreover, the mutagenic call (Test System: AMES SALMONELLA TYPHIMURIUM, Strain/Indicator: TA100, Metabolic Activation: HAMSTER, LIVER, S-9, AROCLOR 1254 (10%), Method: PREINCUBATION) was “inactive; negative”; the mutagenic call (Test System: AMES SALMONELLA TYPHIMURIUM, Strain/Indicator: TA100, Metabolic Activation: NONE, Method: PREINCUBATION) was “inactive; negative”; the mutagenic call under setting [3] was “active; positive”; the mutagenic call (Test System: AMES SALMONELLA TYPHIMURIUM, Strain/Indicator: TA100, Metabolic Activation: RAT LIVER S-9, AROCLOR 1254 (10%), Method: PREINCUBATION) is “inactive; negative”; the mutagenic call (Test System: AMES SALMONELLA TYPHIMURIUM, Strain/Indicator: TA100, Metabolic Activation: RAT, LIVER, S-9, AROCLOR 1254 (10%), Method: PREINCUBATION) is “inactive; negative”; the mutagenic call under setting [4] is “active; positive”. Further, the mutagenic call (Test System: AMES SALMONELLA TYPHIMURIUM, Strain/Indicator: TA104, Metabolic Activation: NONE, Method: STANDARD PLATE) is “inactive; negative”; the mutagenic call (Test System: AMES SALMONELLA TYPHIMURIUM, Strain/Indicator: TA104, Metabolic Activation: RAT, LIVER, S-9, AROCLOR 1254, Method: STANDARD PLATE) was “inactive; negative”; the mutagenic call (Test System: AMES SALMONELLA TYPHIMURIUM, Strain/Indicator: TA1535, Metabolic Activation: HAMSTER LIVER S-9, AROCLOR 1254 (10%), Method: PREINCUBATION) is “inactive; negative”; the mutagenic call (Test System: AMES SALMONELLA TYPHIMURIUM, Strain/Indicator: TA1535, Metabolic Activation: HAMSTER, LIVER, S-9, AROCLOR 1254 (10%), Method: PREINCUBATION) is “inactive; negative”; the mutagenic call (Test System: AMES SALMONELLA TYPHIMURIUM, Strain/Indicator: TA1535, Metabolic Activation: NONE, Method: PREINCUBATION) was “inactive; negative”; the mutagenic call (Test System: AMES SALMONELLA TYPHIMURIUM, Strain/Indicator: TA1535, Metabolic Activation: RAT LIVER S-9, AROCLOR 1254 (10%), Method: PREINCUBATION) was “inactive; negative”. Besides, the mutagenic call runs as follows: (Test System: AMES SALMONELLA TYPHIMURIUM, Strain/Indicator: TA1535, Metabolic Activation: RAT, LIVER, S-9, AROCLOR 1254 (10%), Method: PREINCUBATION) “inactive; negative”; (Test System: AMES SALMONELLA TYPHIMURIUM, Strain/Indicator: TA1537, Metabolic Activation: HAMSTER LIVER S-9, AROCLOR 1254 (10%), Method: PREINCUBATION) “inactive; negative”; (Test System: AMES SALMONELLA TYPHIMURIUM, Strain/Indicator: TA1537, Metabolic Activation: HAMSTER, LIVER, S-9, AROCLOR 1254 (10%), Method: PREINCUBATION) “inactive; negative”; (Test System: AMES SALMONELLA TYPHIMURIUM, Strain/Indicator: TA1537, Metabolic Activation: NONE, Method: PREINCUBATION) “inactive; negative”; (Test System: AMES SALMONELLA TYPHIMURIUM, Strain/Indicator: TA1537, Metabolic Activation: RAT LIVER S-9, AROCLOR 1254 (10%), Method: PREINCUBATION) “inactive; negative”; (Test System: AMES SALMONELLA TYPHIMURIUM, Strain/Indicator: TA1537, Metabolic Activation: RAT, LIVER, S-9, AROCLOR 1254 (10%), Method: PREINCUBATION) “inactive; negative”.
For the compound `O=c1oc2cccc3ccc4c5ccccc5cc1c4c32`, the mutagenic call was “inactive; negative” under setting [1], “active; positive” under setting [2] and “active; positive” under setting [4].
As to `C1CCNCC1`, the mutagenic call under setting [5] was “active; positive” and the mutagenic call (Test System: MOUSE LYMPHOMA, Strain/Indicator: L5178Y (TK+/TK-), Metabolic Activation: RAT, LIVER, S-9, AROCLOR 1254, Method: SUSPENSION/PLATE) was “inactive; negative”.
Regarding `CN(Cc1ccc(Br)cc1)N=O`, the mutagenic call is “active; positive” (Test System: AMES SALMONELLA TYPHIMURIUM, Strain/Indicator: TA1535, Metabolic Activation: HAMSTER, LIVER, S-9, AROCLOR 1254, Method: STANDARD PLATE) and “inactive; negative” under setting [6].
As to `CCO[Si](C)(C)OCC`, the mutagenic call under setting [1] is “inactive; negative”; the mutagenic call (Test System: AMES SALMONELLA TYPHIMURIUM, Strain/Indicator: TA98, Metabolic Activation: RAT LIVER S-9, AROCLOR 1254, Method: STANDARD PLATE) was “inactive; negative”; the mutagenic call under setting [3] was “inactive; negative”; the mutagenic call (Test System: AMES SALMONELLA TYPHIMURIUM, Strain/Indicator: TA100, Metabolic Activation: RAT LIVER S-9, AROCLOR 1254, Method: STANDARD PLATE) was “inactive; negative”; the mutagenic call under setting [6] is “inactive; negative”; the mutagenic call (Test System: AMES SALMONELLA TYPHIMURIUM, Strain/Indicator: TA1535, Metabolic Activation: RAT LIVER S-9, AROCLOR 1254, Method: STANDARD PLATE) was “inactive; negative”. For the same compound, the mutagenic call by setting is: (Test System: AMES SALMONELLA TYPHIMURIUM, Strain/Indicator: TA1537, Metabolic Activation: NONE, Method: STANDARD PLATE) “inactive; negative”; (Test System: AMES SALMONELLA TYPHIMURIUM, Strain/Indicator: TA1537, Metabolic Activation: RAT LIVER S-9, AROCLOR 1254, Method: STANDARD PLATE) “inactive; negative”; (Test System: AMES SALMONELLA TYPHIMURIUM, Strain/Indicator: TA1538, Metabolic Activation: NONE, Method: STANDARD PLATE) “inactive; negative”; (Test System: AMES SALMONELLA TYPHIMURIUM, Strain/Indicator: TA1538, Metabolic Activation: RAT LIVER S-9, AROCLOR 1254, Method: STANDARD PLATE) “inactive; negative”; (Test System: E. COLI, Strain/Indicator: P3078 POLA, Metabolic Activation: NONE, Method: SPOT TEST) “inactive; negative”; (Test System: E. COLI, Strain/Indicator: P3078 POLA, Metabolic Activation: RAT LIVER S-9, AROCLOR 1254, Method: SPOT TEST) “inactive; negative”. The mutagenic call is “inactive; negative” (Test System: E. COLI, Strain/Indicator: W3110, Metabolic Activation: NONE, Method: SPOT TEST); “inactive; negative” (Test System: E. COLI, Strain/Indicator: W3110, Metabolic Activation: RAT LIVER S-9, AROCLOR 1254, Method: SPOT TEST); “inactive; negative” under setting [5]; “inactive; negative” (Test System: MOUSE LYMPHOMA, Strain/Indicator: L5178Y (TK+/TK-), Metabolic Activation: RAT, LIVER, S-9, Method: SUSPENSION/PLATE).
